Source: patent US20090275562A1 (Cypress Biosciences, Inc., priority 2008, published 2009)

Key:
[1] = Example 4 tolerability study of mirtazapine and betahistine in healthy subjects; format: in vivo, human; details: 6 weeks; 15 mg mirtazapine evening, 8 or 16 mg betahistine morning; present-tense example
Protocol: (§1) The subjects receive 2 capsules per day, one in the morning and one at bedtime. […] All medications are administered in an over-encapsulated format that ensures blinding of study participants, staff and investigators. All subjects are scheduled to receive a total of 6 weeks of therapy, and are required to return to the clinics after 1, 2, 4 and 6 weeks of therapy. Patients are required to complete paper self-assessments, electronic diary assessments, computer based cognitive testing, as well as vital signs and weight assessments at the clinic visits.

[2] = Example 1 tolerability study of mirtazapine and reboxetine in healthy subjects; format: in vivo, human; details: 6 weeks; 15 mg mirtazapine evening, 2 or 4 mg reboxetine morning; present-tense example
Protocol: as §1

[3] = system: 5-HT and NA reuptake sites; details: from U.S. Pat. No. 6,642,235; cited from earlier work
[4] = Example 1A clinical study, 6-week weight gain/loss with mirtazapine and reboxetine; format: in vivo, human; details: for Mean Change from Baseline (weight): Week 6, 4 mg reboxetine morning, 15 mg mirtazapine evening, female volunteers; for mean change in body mass over the course of the study, in words (FIGS. 1-4): completers with fasted body mass at baseline and end of week 6; for 6-week weight gain (or loss), in words: versus placebo, 6 weeks of therapy
Protocol: All medications were administered in an over-encapsulated format that ensures blinding of study participants, staff and investigators. All subjects received a total of 6 weeks of therapy. Vital signs and weight assessments were made at clinic visits at the beginning and end of the study and at various times during the study. Patient outcomes of sleep quality and propensity were evaluated using the Karolinska Sleepiness Scale (KSS) and the Epworth Sleepiness Scale (ESS). Standard safety review was also conducted for each of the subjects, including recordation of any adverse events.
Sensitivity analysis was performed for completers and for intention-to-treat, last observation carried forward ([…]).

[5] = controlled studies, cited from earlier work
[6] = Completers and MF (morning fasting) weight

CCOc1ccccc1OC(c1ccccc1)C1CNCCO1 (racemic) [reboxetine, 2-[(2-ethoxyphenoxy)-phenyl-methyl]morpholine]
side effects caused, in words [1]: insomnia, nausea/vomiting, and weight loss | side effects caused, in words [2]: insomnia, nausea/vomiting, and weight loss | norepinephrine reuptake inhibitor selectivity (Ki5HT/KiNA) [3]: about 80 | Mean Change from Baseline (weight) [4, 6]: -1.61 kg | Mean Change from Baseline (weight) ([4]; Completers and NMF weight): -1.7 kg | Mean Change from Baseline (weight) ([4]; ITT-LOCF & NMF weight): -1.693 kg | Mean Change from Baseline (weight) ([4]; ITT-LOCF and MF weight): -1.685 kg | mean change in body mass over the course of the study, in words (FIGS. 1-4) [4]: decrease in body mass | 6-week weight gain (or loss), in words [4]: weight loss as compared to placebo-only

CN(C)CCC=C1c2ccccc2CCc2ccccc21 [amitriptyline]
weight gain of greater than or equal to 7% of body weight, share of patients ([5]; placebo 0%): 5.9% | appetite increase reported, share of patients ([5]; placebo 2%): 6%

CN1CCN2c3ncccc3Cc3ccccc3C2C1 (stereo not drawn) [mirtazapine, 1,2,3,4,10,14b-hexahydro-2-methylpyrazino[2,1-a]pyrido[2,3-c]benzazepine]
side effects caused, in words [1]: weight gain, sedation, and cognitive deficits | side effects caused, in words [2]: weight gain, sedation, and cognitive deficits | increase in body weight / weight gain ([4]; 6 weeks, text summary of the tables (values of Table 1A-1, mean ± standard error)): 2.215 ± 0.385 kg | Mean Change from Baseline (weight) [4, 6]: 2.215 kg | Mean Change from Baseline (weight) ([4]; Completers and NMF weight): 1.943 kg | Mean Change from Baseline (weight) ([4]; ITT-LOCF & NMF weight): 1.8 kg | Mean Change from Baseline (weight) ([4]; ITT-LOCF and MF weight): 2.043 kg | mean change in body mass over the course of the study, in words (FIGS. 1-4) [4]: marked increase in body mass | 6-week weight gain (or loss), in words [4]: significantly greater weight gain

(S,S)reboxetine
norepinephrine reuptake inhibitor selectivity (Ki5HT/KiNA) [3]: about 12,700
